Measurements: article PMC9866629, “Pharmacokinetics of Novel Furoxan/Coumarin Hybrids in Rats Using LC-MS/MS Method and Physiologically Based Pharmacokinetic Model” (Molecules, 2023)
Several values for one entry are separate records, joined by “and”; a condition that tells them apart may be missing. Equal values may be shown once. Read-outs that look alike come from different tables or passages of the source.

What was measured:
[1] = In vitro intrinsic clearance, disappearance via rat liver microsomes; assay type: in vitro ADME; conditions: for microsomal CLint: Sprague Dawley, rat, pooled liver microsomes, pH 7.4, rat hepatic microsomes; for microsomal CLint / CLint: Vmax divided by Km; for Km at 20 min: pooled rat liver microsomes, pH 7.4; for Km at 20 min / Vmax: rat hepatic microsomes 0.2 mg protein/mL, NADPH 1 mM, 20 min; for CLint: rat hepatic microsomes
Method: The incubation mixture with a final volume of 50 μL contained the testing compound, rat liver microsomes (0.2 mg protein/mL), phosphate buffer ([…], pH 7.4), and NADPH (1 mM). Before adding NADPH, the reaction mixture was preincubated in a shaking water bath at 37 °C for 5 min. 200 μL of methanol–acetonitrile mixture (1:1) containing IS was added to terminate the reaction after incubation for 20 min. Concentration of the testing compound was determined by LC-MS/MS after centrifugation at 14,000 rpm for 15 min. […] All experiments were performed in triplicate.
(§1) Vmax and Km were estimated via the nonlinear regression of the Michaelis–Menten model by using GraphPad Prism (Version 6.01, http://www.graphpad.com/). The PK parameters were determined from drug plasma concentration-time data by employing a noncompartmental approach using Phoenix WinNonlin (version 3.0).

[2] = Stability test of QC plasma samples (LC-MS/MS validation); assay type: physicochemical, rat; conditions: QC plasma samples 20–800 ng/mL, frozen at −80 °C for one week, n = 5
Method: The concentration of the testing compound was calculated by using the calibration curves with seven dots (10, 25, 50, 100, 250, 500, and 1000 ng/mL). The calibration line was constructed by plotting the peak area ratio (y-axis) of analytes to IS versus the nominal concentration (x-axis). The specificity and selectivity were investigated by comparing the chromatograms of blank plasma samples with the corresponding samples spiked with testing compounds. The signal-to-noise ratio (S/N) of the lower limit of quantification (LLOQ) was at least at 10. The linearity of the calibration graph was validated, and the calculated concentrations of the calibration standards should be all within ±15% of the nominal value, except for the LLOQ of ±20%. The linear correlation coefficient (R^2) should be 0.9900 or greater. The intra- and interday precisions and accuracy of the method were assessed by determining the quality control (QC) samples of […] (six samples at each concentration level) over 3 consecutive days. The coefficient of variation (CV) should not exceed 20% at LLOQ and should be within 15% for QCs. The relative error (RE) should be within 80%–120% at LLOQ and within 85%–115% for QCs. Recovery was assessed by comparing peak area of nominal QC plasma samples with peak area of the spike-after extraction samples (six samples at each concentration level). The matrix effect was evaluated by comparing peak area of the spike-after extraction samples with that of the analytes spiked in pure water (six samples at each concentration level). The recovery and matrix factor should be within 85%–115%. The variation in recovery and matrix effect should be less than 15%. The dilution integrity test was performed for samples exceeding the upper limit of quantification (ULOQ). QCs were prepared (5 samples at each concentration level) and frozen at […] for one week. LC-MS/MS analysis was performed to calculate the stability (RE). Samples of 25 μg/mL (n = 6) were diluted with blank matrix to 0.5 μg/mL, which was within the calibration line range, and the RE should be within 85–115%.

[3] = Pharmacokinetic study after intravenous administration to rats; assay type: in vivo, rat; conditions: for clearance / AUC(0-inf) / Cmax / MRT / Tmax / Vd / half-life / AUC(0-t): rat, plasma; for AUC(0-t): read-out: AUC(0–24 h)
Method: Rats were randomly divided into three groups, namely A, B, and C, with six rats in each group. […] Blood samples (0.15–0.2 mL) were collected through the femoral artery into an Eppendorf tube moistened with heparinized 0.9% NaCl before intravenous injection (0 h) and at 0.083, 0.25, 0.5, 1, 2, 4, 8, 12, and 24 h after intravenous injection. The blood sample was immediately centrifuged at 3000 rpm for 10 min at a temperature of 4 °C, and the upper plasma sample was collected and stored at −80 °C until analysis.
The plasma samples were thawed at room temperature before determination. Further, 20 μL of plasma was pipetted into a 1.5 mL Eppendorf tube, and 80 μL of methanol–acetonitrile (1:1, v/v) solution containing 200 ng/mL IS was added to precipitate the proteins. The contents were mixed thoroughly via vortexing the plasma sample for 40 s. The supernatant was aspirated for LC-MS/MS analysis after centrifugation at 14,000 rpm for 15 min.
as §1

[4] = Free drug fraction (fu) in rat plasma by ultrafiltration; assay type: in vitro ADME
Method: The fu of furoxan/coumarin hybrids in plasma was measured through the ultrafiltration method by using Amicon Ultra-15 ultrafiltration centrifuge tube (0.5 mL, 3-kDa membrane, Millipore, Bedford, MA, USA). […] One batch was incubated in a shaking water bath at 37 °C for 30 min, and the other batch was incubated for 60 min. After incubation, a plasma sample was transferred into ultrafiltration tube and centrifuged at 10,000 rpm for 20 min. The free compound in the filtrated fraction was determined directly by LC-MS/MS. All experiments were performed in triplicate.

[5] = Blood-to-plasma concentration ratio (B/P) in rat blood; assay type: in vitro ADME; conditions: 37 °C, 1 μg/mL (CY-14S-4A83, CY-16S-4A43), 5 μg/mL (CY-16S-4A93)
Method: Two batches of blood samples were prepared in parallel. One batch of the blood samples was then incubated in a shaking water bath at 37 °C for 30 min, and the other batch was incubated for 60 min. After incubation, one 150 μL aliquot of blood samples was centrifuged at 1500 rpm for 5 min, and the concentrations of the testing compound in the resulting plasma portion after extraction were determined by LC-MS/MS. In parallel, another 50 uL aliquot of the blood incubation sample was transferred into an Eppendorf tube and lysed by three-cycle freeze/thaw method. After the cell-lysis and extraction, the concentration of testing compound in the whole blood sample was determined by LC-MS/MS. The B/P was determined directly by the ratio of drug concentration in the whole blood to the plasma concentration. All experiments were performed in triplicate.

[6] = PBPK modeling (Simcyp Rat); conditions: blood, intravenous, in rats, calculated on the basis of B/P and the plasma clearance rate, read-out: liver blood clearance
Text: PBPK models were constructed with physical chemistry and in vitro PK parameters, such as molecular weight (MW), octanol–buffer partition coefficient (log Po:w), compound type, pKa, B/P, fu, and CLint, using Simcyp (Simcyp Rat Version 16, Sheffield, UK). Two physical chemistry parameters of log Po:w and pKa were predicted on the basis of the structure of the chemicals by using the ADMET Predictor (v.9.0, Lancaster, http://www.simulations-plus.com/, accessed on 9 September 2019). Other parameters, including B/P, fu, and CLint, were obtained through in vitro experiments as mentioned above. The time course of xenobiotic concentration in plasma was simulated, and the PBPK models were further optimized on the basis of the experimental in vivo PK parameters (AUC, Cmax, and time to reach Cmax (Tmax)). The prediction accuracy of the PBPK model was evaluated by introducing the deviation (fold error) of the predicted PK parameters and comparing them with the experimental ones. The equation of the fold error is shown below. A simulation with fold errors no greater than 2 is acceptable [36, 42]. (1) fold error=observed parameter/predicted parameter;if observed value>predicted value (2) fold error=predicted parameter/observed parameter;if predicted value>observed value

[7] = 1.67 mg/kg, experimental value compared with PBPK prediction, read-out: experimental CL
[8] = single dose 1.67 mg/kg, read-out: CL (converted)

| SMILES | microsomal CLint [1] | Km at 20 min [1] | Vmax [1] | Stability (RE) [2] | clearance [6] | clearance [3, 7] | AUC(0-inf) ([3]; single dose 1.67 mg/kg) | Cmax ([3]; single dose 1.67 mg/kg) | MRT ([3]; single dose 1.67 mg/kg) | Tmax ([3]; single dose 1.67 mg/kg) | Vd ([3]; single dose 1.67 mg/kg) | half-life ([3]; single dose 1.67 mg/kg) | AUC(0-t) ([3]; single dose 1.67 mg/kg) | clearance [3, 8] | further results |
| --- | --- | --- | --- | --- | --- | --- | --- | --- | --- | --- | --- | --- | --- | --- | --- |
| Cc1c(Cc2ccc(F)cc2)c(=O)oc2cc(OCCOc3no[n+]([O-])c3S(=O)(=O)c3ccccc3)ccc12 [CY-14S-4A83] | 336 µL/min/mg | 18 ± 2.3 µM | 6044.0 pmol/min/mg Protein and 6044.0 ± 290.8 pmol/min/mg Protein | 88–94.4% | 0.23 mL/min | – | – | – | – | – | – | – | – | – | CLint [1]: 336.033 µL/min/mg; plasma concentration within 24 h (stays above LLOQ) ([3]; 0.5 mg/kg): > 10 ng/mL; clearance ([3]; 0.5 mg/kg, experimental value compared with PBPK prediction, read-out: experimental CL): 1.73 mL/min; AUC(0-inf) ([3]; single dose 0.5 mg/kg): 1340 ± 475 ng·h/mL; Cmax ([3]; single dose 0.5 mg/kg): 946 ± 452 ng/mL; MRT ([3]; single dose 0.5 mg/kg): 366 ± 90 min; Tmax ([3]; single dose 0.5 mg/kg): 12 ± 12 min; Vd ([3]; single dose 0.5 mg/kg): 0.56 ± 0.15 L/kg; half-life ([3]; single dose 0.5 mg/kg): 60 ± 12 min; AUC(0-t) ([3]; single dose 0.5 mg/kg): 1310 ± 462 ng·h/mL; clearance ([3]; single dose 0.5 mg/kg, read-out: CL (converted)): 6.91 mL/min/kg; fraction unbound at 30 min ([4]; rat, fresh rat plasma): 0.0298 ± 0.002; fraction unbound at 60 min ([4]; rat, fresh rat plasma): 0.0217 ± 0.0003; f u ([4]; value used in the PBPK modeling): 0.02; B/P ([5]; incubation time 30 min): 12.11 ± 0.094; B/P ([5]; incubation time 60 min): 12.34 ± 0.03 |
| Cc1c(Cc2ccc(C#N)cc2)c(=O)oc2cc(OCCOc3no[n+]([O-])c3S(=O)(=O)c3ccccc3)ccc12 [CY-16S-4A43] | 333 µL/min/mg | 1.4 ± 0.3 µM | 481.2 pmol/min/mg Protein and 481.2 ± 30.0 pmol/min/mg Protein | 86–99.5% | 1.87 mL/min | 10.9 mL/min | 673 ± 182 ng·h/mL | 1210 ± 482 ng/mL | 270 ± 60 min | 6 ± 6 min | 2.03 ± 0.63 L/kg | 30 ± 6 min | 669 ± 182 ng·h/mL | 43.7 mL/min/kg | time within which plasma concentration dropped to less than 10 ng/mL ([3]; 1.67 mg/kg): 2 to 4 h |
| Cc1c(Cc2ccc(C(F)(F)F)cc2)c(=O)oc2cc(OCCOc3no[n+]([O-])c3S(=O)(=O)c3ccccc3)ccc12 [CY-16S-4A93] | 174 µL/min/mg | 1.3 ± 0.2 µM | 220.0 pmol/min/mg Protein | 86.5–94.7% | 0.24 mL/min | 2.08 mL/min | 3850 ± 1770 ng·h/mL | 9380 ± 4210 ng/mL | 132 ± 42 min | 6 min | 0.68 ± 0.38 L/kg | 54 ± 12 min | 3850 ± 1770 ng·h/mL | 8.34 mL/min/kg | Vmax ([1]; listed as CY-14S-4A93): 220.0 ± 14.1 pmol/min/mg Protein; CLint ([1]; listed as CY-14S-4A93): 173.83 µL/min/mg; plasma concentration within 24 h (stays above LLOQ) ([3]; 1.67 mg/kg): > 10 ng/mL |
